Reference: paper PMC9405955, “Plasmodium falciparum Nicotinamidase as A Novel Antimalarial Target” (Biomolecules, 2022)

T1: P. falciparum nicotinamidase (PfNic) (Plasmodium falciparum, UniProt O97284)
T1 construct: gene PF3D7_0320500
T1 sequence (O97284 1-429): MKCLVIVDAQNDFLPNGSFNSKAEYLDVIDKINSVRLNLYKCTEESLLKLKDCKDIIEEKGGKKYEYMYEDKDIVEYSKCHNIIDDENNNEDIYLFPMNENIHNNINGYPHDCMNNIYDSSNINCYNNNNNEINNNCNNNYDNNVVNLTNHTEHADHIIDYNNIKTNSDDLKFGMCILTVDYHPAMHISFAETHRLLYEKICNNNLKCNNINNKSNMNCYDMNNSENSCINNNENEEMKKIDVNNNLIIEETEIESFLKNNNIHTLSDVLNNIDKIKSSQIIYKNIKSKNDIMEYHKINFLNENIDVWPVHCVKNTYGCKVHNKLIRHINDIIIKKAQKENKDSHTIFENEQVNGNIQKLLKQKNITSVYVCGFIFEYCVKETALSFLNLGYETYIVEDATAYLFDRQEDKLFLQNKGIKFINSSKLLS

B1: P. falciparum nicotinamidase (PfNic) (Plasmodium falciparum 3D7) (protein)
chain: T1 sequence (O97284 1-429)
notes: 429 amino acids, N-terminal histidine tag (pet28a), expressed in Rosetta (DE3) E. coli

Tests used:
[1] = target: T1, P. falciparum nicotinamidase (PfNic); assay: […]-nicotinamide to nicotinic acid conversion (HPLC, scintillation counting) in lysates of parasites pre-treated with […] compound for […] h; format: cell-based
[2] = substrate: NC(=O)c1cccnc1; assay: purified protein; format: biochemical, Plasmodium falciparum

Molecule | 14C-nicotinamide to nicotinic acid conversion (HPLC, scintillation counting) in [1] | Km [2] [µM]
Cc1cncc(C=O)c1 [5-methyl-nicotinaldehyde] | indicating 5-Me-nicotinaldehyhde was able to inhibit P. falciparum nicotinamidase in the lysate | 
B1 |  | 3.0 ± 0.9
